From ChEMBL document CHEMBL1201861, “Genomics of Drug Sensitity in Cancer screening data, Wellcome Trust Sanger Institute”

Experiments:
[1] = system: NCI-H889; test: cells; type: functional, cell-based, Homo sapiens; details: Homo sapiens, NCI-H889;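 note: cell growth inhibition of the cell line, read out with a viability assay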
Description: SANGER: Inhibition of human NCI-H889 cell growth in a cell viability assay.

[2] = system: RL; test: cells; type: functional, cell-based, Homo sapiens; details: Homo sapiens, RL
Description: SANGER: Inhibition of human RL cell growth in a cell viability assay.

[3] = system: LB647-SCLC; test: cells; type: functional, cell-based, Homo sapiens; details: Homo sapiens, LB647-SCLC;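 note: cell growth inhibition, read out by a viability assay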
Description: SANGER: Inhibition of human LB647-SCLC cell growth in a cell viability assay.

[4] = system: CAL-148; test: cells; type: functional, cell-based, Homo sapiens; details: Homo sapiens, CAL-148
Description: SANGER: Inhibition of human CAL-148 cell growth in a cell viability assay.

[5] = system: NCI-H1694; test: cells; type: functional, cell-based, Homo sapiens; details: Homo sapiens, NCI-H1694;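 note: cell viability assay measuring inhibition of growth in human NCI-H1694 cells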
Description: SANGER: Inhibition of human NCI-H1694 cell growth in a cell viability assay.

[6] = system: NCI-H345; test: cells; type: functional, cell-based, Homo sapiens; details: Homo sapiens, NCI-H345;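 note: growth inhibition of NCI-H345 cells measured with a cell viability assay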
Description: SANGER: Inhibition of human NCI-H345 cell growth in a cell viability assay.

[7] = system: TE-441-T; test: cells; type: functional, cell-based, Homo sapiens; details: Homo sapiens, TE-441-T
Description: SANGER: Inhibition of human TE-441-T cell growth in a cell viability assay.

[8] = system: ARH-77; test: cells; type: functional, cell-based, Homo sapiens; details: Homo sapiens, ARH-77;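 note: growth inhibition of ARH-77 cells, read out by a cell viability assay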
Description: SANGER: Inhibition of human ARH-77 cell growth in a cell viability assay.

[9] = system: NB17; test: cells; type: functional, cell-based, Homo sapiens; details: Homo sapiens, NB17;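 note: growth inhibition of NB17 cells, read out with a cell viability assay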
Description: SANGER: Inhibition of human NB17 cell growth in a cell viability assay.

[10] = system: CESS; test: SANGER: Inhibition of human CESS cell growth in a cell viability assay.; type: functional, cell-based; details: Homo sapiens, CESS
[11] = system: CP66-MEL; test: cells; type: functional, cell-based; details: Homo sapiens;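 note: growth inhibition of CP66-MEL cells determined in a cell viability assay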
Description: SANGER: Inhibition of human CP66-MEL cell growth in a cell viability assay.

[12] = system: NB1; test: cells; type: functional, cell-based, Homo sapiens; details: Homo sapiens, NB1
Description: SANGER: Inhibition of human NB1 cell growth in a cell viability assay.

[13] = system: TALL-1; test: cells; type: functional, cell-based, Homo sapiens; details: Homo sapiens, TALL-1;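 note: growth inhibition of cultured human TALL-1 cells, read out by a cell viability assay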
Description: SANGER: Inhibition of human TALL-1 cell growth in a cell viability assay.

[14] = system: JIYOYE; test: cells; type: functional, cell-based, Homo sapiens; details: Homo sapiens, JIYOYE
Description: SANGER: Inhibition of human JiyoyeP-2003 cell growth in a cell viability assay.

[15] = system: ECC4; test: cells; type: functional, cell-based, Homo sapiens; details: Homo sapiens, ECC4;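 note: growth inhibition of ECC4 cells, read out with a cell viability assay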
Description: SANGER: Inhibition of human ECC4 cell growth in a cell viability assay.

[16] = system: ST486; test: SANGER: Inhibition of human ST486 cell growth in a cell viability assay.; type: functional, cell-based; details: Homo sapiens, ST486
[17] = system: SNU-16; test: cells; type: functional, cell-based, Homo sapiens; details: Homo sapiens, SNU-16;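 note: growth inhibition of human SNU-16 cells, determined with a cell viability readout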
Description: SANGER: Inhibition of human NCI-SNU-16 cell growth in a cell viability assay.

[18] = system: RL95-2; test: cells; type: functional, cell-based, Homo sapiens; details: Homo sapiens, RL95-2;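 note: RL95-2 growth inhibition determined through a cell viability readout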
Description: SANGER: Inhibition of human RL95-2 cell growth in a cell viability assay.

[19] = system: Raji; test: cells; type: functional, cell-based, Homo sapiens; details: Homo sapiens, Raji;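 note: cell viability assay measuring inhibition of Raji cell growth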
Description: SANGER: Inhibition of human Raji cell growth in a cell viability assay.

[20] = system: NCI-H1963; test: cells; type: functional, cell-based, Homo sapiens; details: Homo sapiens, NCI-H1963;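 note: cell growth inhibition of the human line, determined with a cell viability assay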
Description: SANGER: Inhibition of human NCI-H1963 cell growth in a cell viability assay.

[21] = system: EW-24; test: cells; type: functional, cell-based, Homo sapiens; details: Homo sapiens, EW-24;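 note: human EW-24 cancer cell line, growth inhibition read out via a cell viability assay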
Description: SANGER: Inhibition of human EW-24 cell growth in a cell viability assay.

[22] = system: HCC 2998; test: cells; type: functional, cell-based; details: Homo sapiens;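 note: growth inhibition of human HCC2998 cells, measured with a cell viability read-out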
Description: SANGER: Inhibition of human HCC2998 cell growth in a cell viability assay.

Row | SMILES | IC50 [1] | IC50 [2] | IC50 [3] | IC50 [4] | IC50 [5] | IC50 [6] | IC50 [7] | IC50 [8] | IC50 [9] | IC50 [10] | IC50 [11] | IC50 [12] | IC50 [13] | IC50 [14] | IC50 [15] | IC50 [16] | IC50 [17] | IC50 [18] | IC50 [19] | IC50 [20] | also measured
1 | C=CC(=O)N1CCCC(Nc2nc(Nc3ccc(N(C)C(=O)CC)cc3)nc3[nH]cnc23)C1 (stereo unspecified) | > 10200 nM | > 10200 nM | > 10200 nM | > 10200 nM | > 10200 nM | > 10200 nM | > 10200 nM | > 10200 nM | > 10200 nM | > 10200 nM | > 10200 nM | > 10200 nM | > 10200 nM | > 10200 nM | > 10200 nM | > 10200 nM | > 10200 nM | > 10200 nM | > 10200 nM | > 10200 nM | IC50 [21]: 4590 nM
2 | COc1ccc(N(C(=O)Oc2c(C)cccc2C)c2ccnc(Nc3ccc(N4CCN(C)CC4)cc3)n2)c(OC)c1 | > 5120 nM | > 5120 nM | > 5120 nM | > 5120 nM | > 5120 nM | > 5120 nM | > 5120 nM | > 5120 nM | 2630 nM | > 5120 nM | > 5120 nM | > 5120 nM | > 5120 nM | > 5120 nM | > 5120 nM | > 5120 nM | 15.7 nM | 1320 nM | > 5120 nM | > 5120 nM | IC50 [21]: > 5120 nM
3 | Cc1cc(N2CCOCC2)cc2[nH]c(-c3c(NC[C@@H](O)c4cccc(Cl)c4)cc[nH]c3=O)nc12 | > 5120 nM | > 5120 nM | > 5120 nM | > 5120 nM | > 5120 nM | > 5120 nM | > 5120 nM | 2800 nM | > 5120 nM | > 5120 nM | > 5120 nM | > 5120 nM | > 5120 nM | 5000 nM | > 5120 nM | > 5120 nM | 873 nM | 813 nM | > 5120 nM | > 5120 nM | IC50 [21]: > 5120 nM
4 | NC(=O)c1cccc(-c2cc(Nc3ccc(OC(F)(F)F)cc3)ncn2)c1 | > 1280 nM | > 1280 nM | > 1280 nM | > 1280 nM | > 1280 nM | > 1280 nM | > 1280 nM | > 1280 nM | > 1280 nM | > 1280 nM | > 1280 nM | > 1280 nM | > 1280 nM | > 1280 nM | > 1280 nM | > 1280 nM | > 1280 nM | > 1280 nM | > 1280 nM | > 1280 nM | IC50 [21]: > 1280 nM
5 | CC(C)C[C@H](NC(=O)[C@H](Cc1ccccc1)NC(=O)c1cnccn1)B(O)O [BORTEZOMIB] | > 20 nM | > 20 nM | 4.22 nM | > 20 nM | 7.58 nM | 7.2 nM | > 20 nM | 2.38 nM | 2.04 nM | 0.538 nM | 0.473 nM | 6.88 nM | > 20 nM | 5 nM | > 20 nM | > 20 nM | 7.65 nM | 3.79 nM | 4.46 nM | > 20 nM | IC50 [22]: 0.412 nM; IC50 [21]: 2.08 nM
